The values that follow come from ChEMBL document CHEMBL1134027, “An improved method for the rapid preparation of 2-amino-4,4a-dihydro-4a,7-dimethyl-3H-phenoxazine-3-one, a novel antitumor agent” (2001).

Each structure is given as a SMILES string.

Type in all cases: functional
Assay [1] relates to HL-60. Kind of assay: Inhibition of incorporation of [3H]thymidine into DNA of human myeloid leukemia HL-60 cell at 0 uM after 1 hr.
In assay [2] the test system is HL-60. Kind of assay: Inhibition of incorporation of [3H]thymidine into DNA of human myeloid leukemia HL-60 cell at 0 uM after 2 hr.
Assay [3] has as its system HL-60. Kind of assay: Inhibition of incorporation of [3H]-thymidine into DNA of human myeloid leukemia HL-60 cell at 0 uM after 4 hr.
For assay [4], the system named is HL-60. Kind of assay: Inhibition of incorporation of [3H]thymidine into DNA of human myeloid leukemia HL-60 cell at 0 uM after 8 hr.
Assay [5] deals with HL-60. Kind of assay: Inhibition of incorporation of [3H]thymidine into DNA of human myeloid leukemia HL-60 cell at 100 uM after 1 hr.
In assay [6] the test system is HL-60. Kind of assay: Inhibition of incorporation of [3H]thymidine into DNA of human myeloid leukemia HL-60 cell at 100 uM after 2 hr.
For assay [7], the system named is HL-60. Kind of assay: Inhibition of incorporation of [3H]-thymidine into DNA of human myeloid leukemia HL-60 cell at 100 uM after 4 hr.
The test system of assay [8] is HL-60. Kind of assay: Inhibition of incorporation of [3H]thymidine into DNA of human myeloid leukemia HL-60 cell at 100 uM after 8 hr.
In assay [9] the test system is HL-60. Kind of assay: Inhibition of incorporation of [3H]thymidine into DNA of human myeloid leukemia HL-60 cell at 200 uM after 2 hr.
In assay [10] the test system is HL-60. Kind of assay: Inhibition of incorporation of [3H]thymidine into DNA of human myeloid leukemia HL-60 cell at 200 uM after 4 hr.
The test system of assay [11] is HL-60. Kind of assay: Inhibition of incorporation of [3H]thymidine into DNA of human myeloid leukemia HL-60 cell at 200 uM after 8 hr.
Assay [12] can be described thus: Inhibition of incorporation of [3H]thymidine into DNA of human lymphoid leukemia HAL-01 cell at 0 uM after 2 hr.
Assay [13] is described as follows: Inhibition of incorporation of [3H]thymidine into DNA of human lymphoid leukemia HAL-01 cell at 0 uM after 4 hr.
A short description of assay [14]: Inhibition of incorporation of [3H]thymidine into DNA of human lymphoid leukemia HAL-01 cell at 0 uM after 8 hr.
Assay [15] can be described thus: Inhibition of incorporation of [3H]thymidine into DNA of human lymphoid leukemia HAL-01 cell at 100 uM after 1 hr.
A short description of assay [16]: Inhibition of incorporation of [3H]thymidine into DNA of human lymphoid leukemia HAL-01 cell at 100 uM after 2 hr.
Assay [17] can be described thus: Inhibition of incorporation of [3H]thymidine into DNA of human lymphoid leukemia HAL-01 cell at 100 uM after 4 hr.
Assay [18] can be described thus: Inhibition of incorporation of [3H]thymidine into DNA of human lymphoid leukemia HAL-01 cell at 100 uM after 8 hr.
The nature of assay [19]: Inhibition of incorporation of [3H]thymidine into DNA of human lymphoid leukemia HAL-01 cell at 200 uM after 1 hr.
Assay [20] in a line: Inhibition of incorporation of [3H]thymidine into DNA of human lymphoid leukemia HAL-01 cell at 200 uM after 2 hr.
Assay [21] in a line: Inhibition of incorporation of [3H]thymidine into DNA of human lymphoid leukemia HAL-01 cell at 200 uM after 4 hr.
The nature of assay [22]: Inhibition of incorporation of [3H]thymidine into DNA of human lymphoid leukemia HAL-01 cell at 200 uM after 8 hr.
Assay [23] relates to HL-60. Kind of assay: Inhibition of incorporation of [3H]thymidine into DNA of human myeloid leukemia HL-60 cell at 200 uM after 1 hr.
Assay [24] can be described thus: Inhibition of incorporation of [3H]thymidine into DNA of human lymphoid leukemia HAL-01 cell at 0 uM after 1 hr.

For `Cc1ccc2c(c1)OC1(C)CC(=O)C(N)=CC1=N2` (centres undefined), the No. of cells is 0 in the assay with HL-60 [1]; 21000 in the assay with HL-60 [2]; 25000 with HL-60 [3]; 35000 with HL-60 [4]; 0 in the assay on HL-60 [5]; 14000 with HL-60 [6]. Besides, the No. of cells was found to be 15000 in the assay on HL-60 [7]; 19000 with HL-60 [8]; 6000 with HL-60 [9]; 9000 with HL-60 [10]; 12000 in the assay with HL-60 [11]; 25000 in [12]. For the same compound, the No. of cells came to 34000 in assay [13]; 40000 in assay [14]; 0 in assay [15]; 17000 in [16]; 18000 in assay [17]; 19000 in assay [18]. Moreover, the No. of cells worked out at 0 in assay [19]; 9000 in [20]; 10000 in [21]; 14000 in assay [22]; 0 in the assay with HL-60 [23]; 0 in [24].
